Converted amounts (≈) assume the structure as drawn.
Key:
Assay type in all cases: functional
Enterococcus faecalis = experiment: Minimum inhibitory concentration in vitro against Enterococcus faecalis LS-101
Escherichia coli = experiment: Minimum inhibitory concentration in vitro against Escherichia coli NIHJ JC-2
Staphylococcus aureus [1] = experiment: Minimum inhibitory concentration vitro against Staphylococcus aureus No.88
Streptococcus pneumoniae = experiment: Minimum inhibitory concentration in vitro against Streptococcus pneumoniae Type III
Staphylococcus aureus [2] = experiment: Minimum inhibitory concentration in vitro against Staphylococcus aureus FDA 209P

SMILES | MIC (Enterococcus faecalis) | MIC (Escherichia coli) | MIC (Staphylococcus aureus [1]) | MIC (Streptococcus pneumoniae) | MIC (Staphylococcus aureus [2])
CC1COc2c(N3CCN(C)CC3)c(F)cc3c(=O)c(C(=O)O)cn1c23 (stereo not drawn) [OFLOXACIN] | 0.39 µg/mL (≈ 1.08 µM) | 0.05 µg/mL (≈ 0.138 µM) | 50 µg/mL (≈ 138 µM) | 0.78 µg/mL (≈ 2.16 µM) | 0.2 µg/mL (≈ 0.553 µM)
NCC1CN(c2c(F)cc3c(=O)c(C(=O)O)cn(C4CC4)c3c2Cl)CCO1 (stereo not drawn) | – | 0.1 µg/mL (≈ 0.253 µM) | – | 0.1 µg/mL (≈ 0.253 µM) | 0.012 µg/mL (≈ 0.0303 µM)
O=C(O)c1cn(C2CC2)c2cc(N3CCNCC3)c(F)cc2c1=O [CIPROFLOXACIN] | 0.2 µg/mL (≈ 0.604 µM) | – | > 100 µg/mL | 0.39 µg/mL (≈ 1.18 µM) | 0.2 µg/mL (≈ 0.604 µM)
COc1c(N2CC[C@](CN)(CF)C2)c(F)cc2c(=O)c(C(=O)O)cn(C3CC3)c12 | 0.05 µg/mL (≈ 0.123 µM) | 0.05 µg/mL (≈ 0.123 µM) | 3.13 µg/mL (≈ 7.68 µM) | 0.05 µg/mL (≈ 0.123 µM) | 0.012 µg/mL (≈ 0.0295 µM)
NC1CCN(c2nc3c(cc2F)c(=O)c(C(=O)O)cn3-c2ccc(F)cc2F)C1 (stereo not drawn) [TOSUFLOXACIN] | 0.05 µg/mL (≈ 0.124 µM) | 0.025 µg/mL (≈ 0.0618 µM) | > 25 µg/mL | 0.1 µg/mL (≈ 0.247 µM) | 0.025 µg/mL (≈ 0.0618 µM)
CNCC1(CF)CCN(c2c(F)cc3c(=O)c(C(=O)O)cn(C4CC4)c3c2OC)C1 (stereo not drawn) | 0.05 µg/mL (≈ 0.119 µM) | 0.1 µg/mL (≈ 0.237 µM) | 1.56 µg/mL (≈ 3.7 µM) | 0.2 µg/mL (≈ 0.475 µM) | 0.025 µg/mL (≈ 0.0593 µM)
NCC1CN(c2cc3c(cc2F)c(=O)c(C(=O)O)cn3C2CC2)CCO1 (stereo not drawn) | – | 0.39 µg/mL (≈ 1.08 µM) | – | 0.39 µg/mL (≈ 1.08 µM) | 0.2 µg/mL (≈ 0.553 µM)
COc1c(N2CCC(CN)(CO)C2)c(F)cc2c(=O)c(C(=O)O)cn(C3CC3)c12 (stereo not drawn) | 0.2 µg/mL (≈ 0.493 µM) | 0.78 µg/mL (≈ 1.92 µM) | 50 µg/mL (≈ 123 µM) | 0.39 µg/mL (≈ 0.962 µM) | 0.1 µg/mL (≈ 0.247 µM)
COc1c(N2CCOC(CN)C2)c(F)cc2c(=O)c(C(=O)O)cn(C3CC3)c12 (stereo not drawn) | 0.05 µg/mL (≈ 0.128 µM) | 0.2 µg/mL (≈ 0.511 µM) | 6.25 µg/mL (≈ 16 µM) | 0.2 µg/mL (≈ 0.511 µM) | 0.025 µg/mL (≈ 0.0639 µM)
NCC1CN(c2c(F)cc3c(=O)c(C(=O)O)cn(C4CC4)c3c2F)CCO1 (stereo not drawn) | – | 0.1 µg/mL (≈ 0.264 µM) | – | 0.1 µg/mL (≈ 0.264 µM) | 0.025 µg/mL (≈ 0.0659 µM)
COc1c(N2CCC(CN)(CF)C2)c(F)cc2c(=O)c(C(=O)O)cn(C3CC3)c12 (stereo not drawn) | 0.05 µg/mL (≈ 0.123 µM) | 0.05 µg/mL (≈ 0.123 µM) | 1.56 µg/mL (≈ 3.83 µM) | 0.05 µg/mL (≈ 0.123 µM) | 0.012 µg/mL (≈ 0.0295 µM)
COc1c(N2CCC(O)(CN)C2)c(F)cc2c(=O)c(C(=O)O)cn(C3CC3)c12 (stereo not drawn) | 0.2 µg/mL (≈ 0.511 µM) | 0.39 µg/mL (≈ 0.996 µM) | 50 µg/mL (≈ 128 µM) | 0.2 µg/mL (≈ 0.511 µM) | 0.1 µg/mL (≈ 0.255 µM)
COc1c(N2CCC(CF)(CN(C)C)C2)c(F)cc2c(=O)c(C(=O)O)cn(C3CC3)c12 (stereo not drawn) | 0.2 µg/mL (≈ 0.459 µM) | 0.39 µg/mL (≈ 0.896 µM) | 6.25 µg/mL (≈ 14.4 µM) | 0.2 µg/mL (≈ 0.459 µM) | 0.1 µg/mL (≈ 0.23 µM)
COc1c(N2CC[C@@](CN)(CF)C2)c(F)cc2c(=O)c(C(=O)O)cn(C3CC3)c12 | 0.05 µg/mL (≈ 0.123 µM) | 0.05 µg/mL (≈ 0.123 µM) | 0.78 µg/mL (≈ 1.91 µM) | 0.05 µg/mL (≈ 0.123 µM) | 0.012 µg/mL (≈ 0.0295 µM)
C[C@@H]1CN(c2c(F)c(N)c3c(=O)c(C(=O)O)cn(C4CC4)c3c2F)C[C@H](C)N1 [SPARFLOXACIN] | 0.1 µg/mL (≈ 0.255 µM) | 0.025 µg/mL (≈ 0.0637 µM) | 12.5 µg/mL (≈ 31.9 µM) | 0.1 µg/mL (≈ 0.255 µM) | 0.05 µg/mL (≈ 0.127 µM)
COc1c(N2CCC(C)(CN)C2)c(F)cc2c(=O)c(C(=O)O)cn(C3CC3)c12 (stereo not drawn) | 0.05 µg/mL (≈ 0.128 µM) | 0.1 µg/mL (≈ 0.257 µM) | 1.56 µg/mL (≈ 4.01 µM) | 0.05 µg/mL (≈ 0.128 µM) | 0.012 µg/mL (≈ 0.0308 µM)

Source: ChEMBL document CHEMBL1129851, “Synthesis and structural optimization of 7-(3,3-disubstituted-1-pyrrolidinyl)-1-cyclopropyl-6-fluoro-1,4-dihydro-8-methoxy-4-oxo-3-quinolinecarboxylic acids as antibacterial agents” (1997)
